According to ChEMBL document CHEMBL4627339, “Structural motives controlling the binding affinity of 9,10-bis(methylpyridinium)anthracenes towards DNA” (Bioorg Med Chem, 2020):
Activity calls are given as the source filed them. The rule behind the calls is not given here.

Experiments:
Assay type in all cases: nucleic-acid assay
[1] = tested on: Calf thymus DNA; experiment: Binding affinity to calf thymus DNA assessed as bathochromic shift in maximum absorption at 50 uM by UV-Vis absorption spectroscopic method; conditions: Bos taurus
[2] = tested on: Calf thymus DNA; experiment: Binding affinity to calf thymus DNA assessed as hypochromism at 50 uM by UV-Vis spectroscopy relative to control; conditions: Bos taurus
[3] = tested on: Calf thymus DNA; experiment: Binding affinity to calf thymus DNA assessed as binding constant by UV-Vis absorption spectroscopic method; conditions: Bos taurus
[4] = tested on: Calf thymus DNA; experiment: Binding affinity to calf thymus DNA assessed as groove binding by measuring induced circular dichroism with negative signs around 370-380 nm by CD spectroscopy; conditions: Bos taurus
[5] = tested on: Poly(dA-dT)oligonucleotide; experiment: Binding affinity to poly(dA:dT) dsDNA (unknown origin) assessed as increase in fluorescence intensity by fluorescence spectroscopy
[6] = tested on: Calf thymus DNA; experiment: Binding affinity to calf thymus DNA assessed as groove binding by measuring blue-shift in maximum emission intensity of compound by fluorescence spectroscopy; conditions: Bos taurus
[7] = tested on: Poly(dG-dC)oligonucleotide; experiment: Binding affinity to poly(dG:dC) dsDNA (unknown origin) assessed as increase in fluorescence intensity by fluorescence spectroscopy
[8] = tested on: Poly(dA-dT)oligonucleotide; experiment: Binding affinity to poly(dA:dT) dsDNA (unknown origin) assessed as increase in intensity with one ligand binding for two base pairs by UV-Vis spectroscopy
[9] = tested on: Poly(dG-dC)oligonucleotide; experiment: Binding affinity to poly(dG:dC) dsDNA (unknown origin) assessed as red shift in absorption maxima by UV-Vis spectroscopy
[10] = tested on: Poly(dA-dT)oligonucleotide; experiment: Binding affinity to poly(dA:dT) dsDNA (unknown origin) assessed as binding constant by fluorescence spectroscopy
[11] = tested on: Poly(dA-dT)oligonucleotide; experiment: Binding affinity to poly(dA:dT) dsDNA (unknown origin) assessed as red shift in absorption maxima by UV-Vis spectroscopy
[12] = tested on: Calf thymus DNA; experiment: Binding affinity to calf thymus DNA assessed as groove binding by measuring spectral changes up to compound:base pair concentration ratio of 1:39 in presence of 300 mM NaCl by UV-Vis spectroscopic method; conditions: Bos taurus
[13] = tested on: Calf thymus DNA; experiment: Binding affinity to calf thymus DNA assessed as loss of vibronic fine structure at 50 uM by UV-Vis absorption spectroscopic method; conditions: Bos taurus
[14] = tested on: Calf thymus DNA; experiment: Binding affinity to calf thymus DNA assessed as DNA intercalation by measuring helix stabilization by DNA melting studies based absorbance analysis; conditions: Bos taurus
[15] = tested on: Calf thymus DNA; experiment: Binding affinity to calf thymus DNA assessed as minor groove binding by measuring rise in absorbance at melting temperature between 76 and 77 degC by DNA melting studies based absorbance analysis; conditions: Bos taurus

Activity [1]	Activity [2]	KB [3]	Activity [4]	Activity [5]	Activity [6]	Activity [7]	Activity [8]	Activity [9]	K [10]	Activity [11]	Activity [12]	Activity [13]	Activity [14]	Activity [15]	Compound
Active	74%	8.4 ×10⁴ /M	Active	Active	Active	inactive	Active	inactive	1.6 ×10⁵ /M	Active	Active	Active	inactive	Active	C[n+]1ccc(-c2c3ccccc3c(-c3cc[n+](C)cc3)c3ccccc23)cc1
inactive	–	–	–	–	–	–	–	–	–	–	–	–	–	–	c1ccc2c(-c3ccncc3)c3ccccc3c(-c3ccncc3)c2c1
Active	66%	7.3 ×10³ /M	inactive	Active	Active	–	–	–	–	–	–	–	inactive	Active	C[n+]1ccc(-c2c3ccccc3c(-c3cc[n+](C)cc3)c3cc(C(C)(C)C)ccc23)cc1
Active	55%	1.2 ×10⁴ /M	Active	Active	Active	–	–	–	–	–	–	–	inactive	Active	CCc1ccc2c(-c3cc[n+](C)cc3)c3ccccc3c(-c3cc[n+](C)cc3)c2c1
Active	41%	6.2 ×10⁴ /M	Active	Active	Active	–	–	–	1 ×10⁵ /M	–	–	–	inactive	Active	Cc1ccc2c(-c3cc[n+](C)cc3)c3ccccc3c(-c3cc[n+](C)cc3)c2c1
Active	56%	2.8 ×10⁵ /M	Active	Active	Active	–	–	–	–	–	–	–	inactive	Active	C[n+]1cc(-c2c3ccccc3c(-c3cc4ccccc4[n+](C)c3)c3ccccc23)cc2ccccc21
Active	41%	1.8 ×10⁵ /M	Active	Active	Active	–	–	–	–	–	–	–	inactive	Active	C[n+]1cccc(-c2c3ccccc3c(-c3ccc[n+](C)c3)c3ccccc23)c1
inactive	–	–	inactive	inactive	inactive	–	–	–	–	–	–	–	–	–	C[n+]1ccccc1-c1c2ccccc2c(-c2cccc[n+]2C)c2ccccc12
